pIC50: −log10 of the molar value. Each block holds one compound with its values, some of them ahead of it.
Experiments:
Blood = assay: Antiinflammatory activity in human whole blood assessed as inhibition of LPS-induced TNFalpha secretion by ELISA; type: functional, tissue-based
Mus musculus = assay: Antiinflammatory activity in po dosed Swiss Albino mouse assessed as inhibition of LPS-induced TNFalpha secretion in blood treated 0.5 hrs before LPS and measured after 1 hr of LPS stimulus by ELISA; type: functional
[1] = target: Matrix metalloproteinase-14 (Homo sapiens, UniProt P50281); assay: Inhibition of MMP14 (unknown origin) by fluorescence-based FRET assay
[2] = Elimination rate constant in Wistar rat at 5 mg/kg, iv; type: ADME, organism-based; design: dose 5 mg/kg, route intravenous; details: in vivo
Neutrophil collagenase = Neutrophil collagenase (Homo sapiens, UniProt P22894); assay: Inhibition of MMP8 (unknown origin) by fluorescence-based FRET assay
Rattus norvegicus [3] = assay: Toxicity in Wistar rat assessed as survival at 100 mg/kg, po bid for 28 days; type: organism-based; design: dose 100 mg/kg, route oral; details: in vivo, 672 h
Stromelysin-1 = Stromelysin-1 (Homo sapiens, UniProt P08254); assay: Inhibition of MMP3 (unknown origin) by fluorescence-based FRET assay
[4] = target: 72 kDa type IV collagenase (Homo sapiens, UniProt P08253); assay: Inhibition of MMP2 (unknown origin) by fluorescence-based FRET assay
Rattus norvegicus [5] = assay: Toxicity in Wistar rat assessed as relative spleen weight at 100 mg/kg, po bid for 28 days (reference value: 0.201+/- 0.007 %); type: organism-based; design: dose 100 mg/kg, route oral; details: in vivo, 672 h
[6] = target: T1, Disintegrin and metalloproteinase domain-containing protein 10 (Homo sapiens, UniProt O14672); assay: Inhibition of ADAM10 (unknown origin) using fluorescent substrate by fluorescence-based FRET assay
T1 sequence (O14672 whole entry): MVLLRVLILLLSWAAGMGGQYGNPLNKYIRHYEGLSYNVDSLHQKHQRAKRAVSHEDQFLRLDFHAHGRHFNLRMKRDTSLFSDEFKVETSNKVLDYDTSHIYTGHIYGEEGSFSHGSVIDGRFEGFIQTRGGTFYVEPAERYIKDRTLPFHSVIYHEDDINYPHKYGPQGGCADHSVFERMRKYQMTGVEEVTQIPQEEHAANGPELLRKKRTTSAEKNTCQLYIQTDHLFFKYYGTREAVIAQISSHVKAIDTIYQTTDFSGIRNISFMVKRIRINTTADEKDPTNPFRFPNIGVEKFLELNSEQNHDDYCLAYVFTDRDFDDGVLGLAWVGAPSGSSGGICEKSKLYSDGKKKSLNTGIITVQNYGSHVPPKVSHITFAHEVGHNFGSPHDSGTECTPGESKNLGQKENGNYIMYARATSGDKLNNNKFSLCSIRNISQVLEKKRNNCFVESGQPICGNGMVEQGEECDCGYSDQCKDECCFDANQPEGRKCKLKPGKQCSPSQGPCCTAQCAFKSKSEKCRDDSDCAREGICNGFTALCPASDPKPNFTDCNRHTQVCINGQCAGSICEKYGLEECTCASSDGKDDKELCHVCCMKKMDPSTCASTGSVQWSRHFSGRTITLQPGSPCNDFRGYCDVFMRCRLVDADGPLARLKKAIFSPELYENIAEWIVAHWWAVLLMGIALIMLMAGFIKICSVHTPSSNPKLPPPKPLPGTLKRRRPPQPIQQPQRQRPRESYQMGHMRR

Collagenase 3 = Collagenase 3 (Homo sapiens, UniProt P45452); assay: Inhibition of MMP13 (unknown origin) by fluorescence-based FRET assay
Rattus norvegicus [7] = assay: Toxicity in Wistar rat assessed as relative liver weight at 100 mg/kg, po bid for 28 days (reference value: 3.659 +/- 0.1 %); type: organism-based; design: dose 100 mg/kg, route oral; details: in vivo, 672 h
Rattus norvegicus [8] = assay: Toxicity in Wistar rat assessed as body weight at 100 mg/kg, po bid for 28 days; type: organism-based; design: dose 100 mg/kg, route oral; details: in vivo, 672 h
Rattus norvegicus [9] = assay: Toxicity in Wistar rat assessed as relative brain weight at 100 mg/kg, po bid for 28 days (reference value: 0.727+/- 0.024 %); type: organism-based; design: dose 100 mg/kg, route oral; details: in vivo, 672 h
[10] = Tmax in Wistar rat at 5 mg/kg, po; type: ADME, organism-based; design: dose 5 mg/kg, route oral; details: in vivo
Interstitial collagenase = target: T2, Interstitial collagenase (Homo sapiens, UniProt P03956); assay: Inhibition of MMP1 (unknown origin) by fluorescence-based FRET assay
T2 sequence (P03956 whole entry): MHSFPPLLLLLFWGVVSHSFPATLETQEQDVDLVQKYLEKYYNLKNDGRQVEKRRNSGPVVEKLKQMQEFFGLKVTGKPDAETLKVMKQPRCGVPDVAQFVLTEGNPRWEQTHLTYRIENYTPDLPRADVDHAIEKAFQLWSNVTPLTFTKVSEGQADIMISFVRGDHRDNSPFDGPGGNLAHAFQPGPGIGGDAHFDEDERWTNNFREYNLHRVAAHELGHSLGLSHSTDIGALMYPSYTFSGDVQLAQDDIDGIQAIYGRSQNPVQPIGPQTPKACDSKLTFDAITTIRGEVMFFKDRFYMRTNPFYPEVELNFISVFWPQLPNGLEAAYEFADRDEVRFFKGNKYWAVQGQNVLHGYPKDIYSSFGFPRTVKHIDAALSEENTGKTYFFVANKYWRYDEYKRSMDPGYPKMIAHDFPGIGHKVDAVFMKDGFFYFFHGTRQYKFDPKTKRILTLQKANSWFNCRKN

Rattus norvegicus [11] = assay: Toxicity in Wistar rat assessed as adverse changes at 100 mg/kg, po bid for 28 days; type: organism-based; design: dose 100 mg/kg, route oral; details: in vivo, 672 h
[12] = target: T3, Disintegrin and metalloproteinase domain-containing protein 17 (Homo sapiens, UniProt P78536); assay: Ratio of IC50 for human catalytic domain of TACE to IC50 for ADAM10 (unknown origin)
[13] = Elimination rate constant in Wistar rat at 5 mg/kg, po; type: ADME, organism-based; design: dose 5 mg/kg, route oral; details: Wistar, in vivo
Rattus norvegicus [14] = assay: Toxicity in Wistar rat assessed as alkaline phosphatase at 100 mg/kg, po bid for 28 days (reference value: 134.66 +/- 5.3 U/L); type: organism-based; design: dose 100 mg/kg, route oral; details: in vivo, 672 h
[15] = Oral bioavailability in Wistar rat at 5 mg/kg; type: ADME, organism-based; details: in vivo
[16] = Half life in Wistar rat at 5 mg/kg, iv; type: ADME, organism-based; design: dose 5 mg/kg, route intravenous; details: in vivo
Rattus norvegicus [17] = assay: Toxicity in Wistar rat assessed as aspartate aminotransferase at 100 mg/kg, po bid for 28 days (reference value: 147.16 +/- 11.75 U/L); type: organism-based; design: dose 100 mg/kg, route oral; details: in vivo, 672 h
Rattus norvegicus [18] = assay: Toxicity in Wistar rat assessed as total bilirubin at 100 mg/kg, po bid for 28 days (reference value: 0.14 +/- 0.01 mg/dL); type: organism-based; design: dose 100 mg/kg, route oral; details: in vivo, 672 h
Matrilysin = target: T4, Matrilysin (Homo sapiens, UniProt P09237); assay: Inhibition of MMP7 (unknown origin) by fluorescence-based FRET assay
T4 sequence (P09237 whole entry): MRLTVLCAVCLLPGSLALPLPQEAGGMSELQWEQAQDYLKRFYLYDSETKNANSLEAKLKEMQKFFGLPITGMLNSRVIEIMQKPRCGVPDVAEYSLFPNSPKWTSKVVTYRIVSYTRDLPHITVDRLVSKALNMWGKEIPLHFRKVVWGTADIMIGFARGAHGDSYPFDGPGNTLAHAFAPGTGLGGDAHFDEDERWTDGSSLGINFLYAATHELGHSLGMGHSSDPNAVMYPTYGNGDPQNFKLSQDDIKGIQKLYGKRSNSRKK

Rattus norvegicus [19] = assay: Toxicity in Wistar rat assessed as relative kidney weight at 100 mg/kg, po bid for 28 days (reference value: 0.821 +/- 0.03 %); type: organism-based; design: dose 100 mg/kg, route oral; details: in vivo, 672 h
[20] = target: Matrix metalloproteinase-9 (Homo sapiens, UniProt P14780); assay: Inhibition of MMP9 (unknown origin) by fluorescence-based FRET assay
Rattus norvegicus [21] = assay: Toxicity in Wistar rat assessed as relative heart weight at 100 mg/kg, po bid for 28 days (reference value: 0.345 +/- 0.007 %); type: organism-based; design: dose 100 mg/kg, route oral; details: in vivo, 672 h
Rattus norvegicus [22] = assay: Toxicity in Wistar rat assessed as food consumption at 100 mg/kg, po bid for 28 days; type: organism-based; design: dose 100 mg/kg, route oral; details: in vivo, 672 h
Rattus norvegicus [23] = assay: Toxicity in Wistar rat assessed as WBC count at 100 mg/kg, po bid for 28 days (reference value: 8.20 +/- 0.33 10^3/ul); type: organism-based; design: dose 100 mg/kg, route oral; details: in vivo, 672 h
[24] = Half life in Wistar rat at 5 mg/kg, po; type: ADME, organism-based; design: dose 5 mg/kg, route oral; details: Wistar, in vivo
[25] = AUC in Wistar rat at 5 mg/kg, iv; type: ADME, organism-based; design: dose 5 mg/kg, route intravenous; details: plasma
Rattus norvegicus [26] = assay: Toxicity in Wistar rat assessed as RBC count at 100 mg/kg, po bid for 28 days (reference value: 7.38 +/- 0.11 10^6/ul); type: organism-based; design: dose 100 mg/kg, route oral; details: in vivo, 672 h
Rattus norvegicus [27] = assay: Toxicity in Wistar rat assessed as alanine aminotransferase at 100 mg/kg, po bid for 28 days (reference value: 20.78 +/- 1.31 U/L); type: organism-based; design: dose 100 mg/kg, route oral; details: in vivo, 672 h
[28] = AUC in Wistar rat at 5 mg/kg, po; type: ADME, organism-based; design: dose 5 mg/kg, route oral; details: plasma
[29] = target: T3, Disintegrin and metalloproteinase domain-containing protein 17; assay: Inhibition of human catalytic domain of TACE assessed as inhibit the cleavage of the substrate by fluorescence-based FRET assay

T3 sequence (P78536 whole entry, the tested form may be a part): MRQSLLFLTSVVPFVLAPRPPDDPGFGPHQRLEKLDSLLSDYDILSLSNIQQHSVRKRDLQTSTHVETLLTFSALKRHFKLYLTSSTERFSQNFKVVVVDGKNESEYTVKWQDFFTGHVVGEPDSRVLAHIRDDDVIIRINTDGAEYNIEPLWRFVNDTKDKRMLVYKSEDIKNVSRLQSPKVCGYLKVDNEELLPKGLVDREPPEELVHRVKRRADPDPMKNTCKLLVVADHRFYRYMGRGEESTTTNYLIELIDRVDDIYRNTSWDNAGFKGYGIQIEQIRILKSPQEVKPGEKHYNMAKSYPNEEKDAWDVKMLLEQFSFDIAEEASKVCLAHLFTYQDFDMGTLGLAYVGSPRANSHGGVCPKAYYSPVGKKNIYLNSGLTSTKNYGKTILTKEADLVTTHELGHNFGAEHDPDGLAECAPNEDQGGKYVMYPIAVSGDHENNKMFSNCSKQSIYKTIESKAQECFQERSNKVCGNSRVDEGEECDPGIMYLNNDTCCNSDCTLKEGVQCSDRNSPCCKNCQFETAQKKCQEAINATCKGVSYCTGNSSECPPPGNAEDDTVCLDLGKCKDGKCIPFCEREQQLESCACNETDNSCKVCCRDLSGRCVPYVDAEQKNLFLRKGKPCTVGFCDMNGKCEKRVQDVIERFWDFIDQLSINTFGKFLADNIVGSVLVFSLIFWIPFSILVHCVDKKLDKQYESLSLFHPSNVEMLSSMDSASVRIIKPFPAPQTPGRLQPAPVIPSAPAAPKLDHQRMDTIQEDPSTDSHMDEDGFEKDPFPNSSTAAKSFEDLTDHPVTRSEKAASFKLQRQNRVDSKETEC
Matrix metalloproteinase-9, sequence (P14780 whole entry): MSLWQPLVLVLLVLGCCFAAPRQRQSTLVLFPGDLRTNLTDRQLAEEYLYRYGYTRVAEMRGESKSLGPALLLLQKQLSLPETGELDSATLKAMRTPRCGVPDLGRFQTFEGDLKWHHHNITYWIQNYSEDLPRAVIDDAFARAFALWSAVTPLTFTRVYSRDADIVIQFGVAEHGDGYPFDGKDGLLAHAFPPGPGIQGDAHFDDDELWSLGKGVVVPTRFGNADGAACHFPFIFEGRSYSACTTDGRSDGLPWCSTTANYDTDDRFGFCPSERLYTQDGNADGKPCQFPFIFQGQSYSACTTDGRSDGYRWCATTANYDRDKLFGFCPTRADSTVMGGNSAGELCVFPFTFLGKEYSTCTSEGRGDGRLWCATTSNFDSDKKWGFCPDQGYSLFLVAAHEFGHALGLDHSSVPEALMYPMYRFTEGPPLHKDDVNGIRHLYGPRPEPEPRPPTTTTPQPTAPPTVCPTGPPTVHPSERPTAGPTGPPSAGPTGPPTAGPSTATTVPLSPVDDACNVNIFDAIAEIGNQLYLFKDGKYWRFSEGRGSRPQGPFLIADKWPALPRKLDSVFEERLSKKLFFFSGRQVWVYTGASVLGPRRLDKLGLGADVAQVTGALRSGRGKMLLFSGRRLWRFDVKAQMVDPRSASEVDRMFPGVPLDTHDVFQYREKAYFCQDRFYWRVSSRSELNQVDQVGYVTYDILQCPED
Stromelysin-1, sequence (P08254 whole entry): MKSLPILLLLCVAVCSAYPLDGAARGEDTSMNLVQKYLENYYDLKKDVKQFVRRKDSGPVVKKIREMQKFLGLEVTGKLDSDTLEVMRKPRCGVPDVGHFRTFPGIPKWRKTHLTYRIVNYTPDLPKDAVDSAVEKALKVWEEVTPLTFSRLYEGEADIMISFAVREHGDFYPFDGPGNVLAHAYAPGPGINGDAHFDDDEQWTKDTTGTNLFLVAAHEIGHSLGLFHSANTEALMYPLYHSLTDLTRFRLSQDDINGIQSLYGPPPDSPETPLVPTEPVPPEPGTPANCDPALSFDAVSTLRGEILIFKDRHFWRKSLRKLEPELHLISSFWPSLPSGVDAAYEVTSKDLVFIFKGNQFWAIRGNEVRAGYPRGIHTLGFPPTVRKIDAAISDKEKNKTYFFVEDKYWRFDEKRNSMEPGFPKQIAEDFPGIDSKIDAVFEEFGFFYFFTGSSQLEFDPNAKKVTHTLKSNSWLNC
Neutrophil collagenase, sequence (P22894 whole entry): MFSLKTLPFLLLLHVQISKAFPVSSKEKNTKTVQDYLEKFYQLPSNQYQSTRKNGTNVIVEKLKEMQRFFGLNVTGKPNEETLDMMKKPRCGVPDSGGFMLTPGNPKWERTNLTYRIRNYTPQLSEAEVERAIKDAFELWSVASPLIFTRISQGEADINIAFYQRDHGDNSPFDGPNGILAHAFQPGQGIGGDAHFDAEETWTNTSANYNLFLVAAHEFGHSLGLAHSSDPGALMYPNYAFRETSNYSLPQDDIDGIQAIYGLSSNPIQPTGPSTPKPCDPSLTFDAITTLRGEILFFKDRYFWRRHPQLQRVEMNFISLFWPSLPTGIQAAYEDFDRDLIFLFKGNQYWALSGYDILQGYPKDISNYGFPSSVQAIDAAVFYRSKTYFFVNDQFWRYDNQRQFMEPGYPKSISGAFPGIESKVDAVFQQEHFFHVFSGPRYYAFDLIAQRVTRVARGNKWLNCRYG
72 kDa type IV collagenase, sequence (P08253 whole entry): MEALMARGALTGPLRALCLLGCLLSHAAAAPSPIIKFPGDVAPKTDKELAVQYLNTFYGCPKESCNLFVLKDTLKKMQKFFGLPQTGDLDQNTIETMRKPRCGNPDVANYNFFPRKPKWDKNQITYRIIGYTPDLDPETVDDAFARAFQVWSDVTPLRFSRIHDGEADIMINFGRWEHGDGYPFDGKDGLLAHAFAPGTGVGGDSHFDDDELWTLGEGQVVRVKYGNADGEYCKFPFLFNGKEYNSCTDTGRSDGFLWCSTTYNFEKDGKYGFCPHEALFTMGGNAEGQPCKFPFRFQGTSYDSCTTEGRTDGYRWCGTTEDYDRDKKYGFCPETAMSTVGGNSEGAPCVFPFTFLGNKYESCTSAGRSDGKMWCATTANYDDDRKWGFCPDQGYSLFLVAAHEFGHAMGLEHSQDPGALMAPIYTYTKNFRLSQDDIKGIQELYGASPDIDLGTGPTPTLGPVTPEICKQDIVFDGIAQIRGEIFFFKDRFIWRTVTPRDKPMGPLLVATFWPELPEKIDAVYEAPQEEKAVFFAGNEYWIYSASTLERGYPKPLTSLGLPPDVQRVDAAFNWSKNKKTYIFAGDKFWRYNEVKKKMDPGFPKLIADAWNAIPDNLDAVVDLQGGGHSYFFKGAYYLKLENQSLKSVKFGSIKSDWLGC

Structure (SMILES): CC(C)C[C@H](C(=O)NO)N1CC[C@@](N)(c2ccc(OCc3cc(-c4ccc(F)cc4)nc4ccccc34)cc2)C1=O
pIC50 (Blood): 6.54

Structure (SMILES): CCc1cc(COc2ccc([C@]3(N)CCN([C@H](CC(C)C)C(=O)NO)C3=O)cc2)c2ccccc2n1
pIC50 (Blood): 6.95

Structure (SMILES): COc1ccc(-c2cc(COc3ccc([C@]4(N)CCN([C@H](CC(C)C)C(=O)NO)C4=O)cc3)c3ccccc3n2)cc1
pIC50 (Blood): 6.60

Structure (SMILES): CC(C)C[C@H](C(=O)NO)N1CC[C@@](N)(c2ccc(OCc3cc(CCOC(C)C)nc4ccccc34)cc2)C1=O
pIC50 (Blood): 6.89

Structure (SMILES): Cc1cccc(-c2cc(COc3ccc([C@]4(N)CCN([C@H](CC(C)C)C(=O)NO)C4=O)cc3)c3ccccc3n2)c1
pIC50 (Blood): 5.41

Structure (SMILES): Cc1cc(COc2ccc([C@]3(N)CCN([C@H](CC(C)C)C(=O)NO)C3=O)cc2)c2ccccc2n1
ED50 (Mus musculus): 6.9 mg/kg
pIC50 [1]: 6.30
k el [2]: 8.33e-05 s⁻¹
pIC50 (Neutrophil collagenase): 6.52
Activity (Rattus norvegicus [3]): Non-toxic
pIC50 (Stromelysin-1): 6.55
pIC50 [4]: 6.32
Activity (Rattus norvegicus [5]): 0.211%
pIC50 [6]: 6.32
pIC50 (Collagenase 3): 6.34
Activity (Rattus norvegicus [7]): 4.993%
Activity (Rattus norvegicus [8]): Non-toxic
Activity (Rattus norvegicus [9]): 0.714%
Tmax [10]: 1.21 h
pIC50 (Interstitial collagenase): 6.37
Activity (Rattus norvegicus [11]): Non-toxic
Ratio IC50 [12]: 40
k el [13]: 2.22e-05 s⁻¹
Activity (Rattus norvegicus [14]): 523.43 U/L
bioavailability [15]: 18.4%
half-life [16]: 161 min
Activity (Rattus norvegicus [17]): 457.21 U/L
Activity (Rattus norvegicus [18]): 0.79 mg/dL
pIC50 (Matrilysin): 6.33
Activity (Rattus norvegicus [19]): 0.831%
pIC50 [20]: 6.41
Activity (Rattus norvegicus [21]): 0.351%
Activity (Rattus norvegicus [22]): Non-toxic
Activity (Rattus norvegicus [23]): 8.99 ×10³ /uL
pIC50 (Blood): 7.22
half-life [24]: 520 min
AUC [25]: 32400 ng·h/mL
Activity (Rattus norvegicus [26]): 7.69 ×10⁶ /uL
Activity (Rattus norvegicus [27]): 39.22 U/L
AUC [28]: 5970 ng·h/mL
pIC50 [29]: 7.92

Structure (SMILES): CC(C)C[C@H](C(=O)NO)N1CC[C@@](N)(c2ccc(OCc3cc(C(C)C)nc4ccccc34)cc2)C1=O
pIC50 (Blood): 6.85

Continued by rising pIC50 (Blood), values first:

pIC50 (Blood): 5.52
Structure (SMILES): COCc1cc(COc2ccc([C@]3(NC(=O)OC(C)(C)C)CCN([C@H](CC(C)C)C(=O)NO)C3=O)cc2)c2ccccc2n1

pIC50 (Blood): 6.33
Structure (SMILES): CC(C)C[C@H](C(=O)NO)N1CC[C@@](N)(c2ccc(OCc3cc(C(F)(F)F)nc4ccccc34)cc2)C1=O

pIC50 (Blood): 6.35
Structure (SMILES): CC(C)C[C@H](C(=O)NO)N1CC[C@@](N)(c2ccc(OCc3cc(Cl)nc4ccccc34)cc2)C1=O

pIC50 (Blood): 6.77
Structure (SMILES): CC(C)C[C@H](C(=O)NO)N1CC[C@@](N)(c2ccc(OCc3cc(C4CC4)nc4ccccc34)cc2)C1=O
